Data set [1] can be described thus: in vitro. The note with it: human, CC50. The procedure: (§1) The evaluation of the antiviral activity of the compounds against HIV in MT-4 cells was performed using the MTT assay as described below. Stock solutions (10 × final concentration) of test compounds were added in 25 μL volumes to two series of triplicate wells to allow simultaneous evaluation of their effects on mock- and HIV-infected cells at the beginning of each experiment. Serial 5-fold dilutions of test compounds were made directly in flat-bottomed 96-well microtiter trays using a Biomek 3000 robot (Beckman Instruments, Fullerton, CA). Untreated HIV- and mock-infected cell samples were included as controls. HIV stock ([…]) at 100–300 CCID50 (50% cell culture infectious doses) or culture medium was added to either the infected or mock-infected wells of the microtiter tray. Mock-infected cells were used to evaluate the effects of the test compound on uninfected cells to assess the test compounds’ cytotoxicity. Exponentially growing MT-4 cells were centrifuged for 5 min at 220 g, and the supernatant was discarded. The MT-4 cells were resuspended at 6 × 10^5 cells/mL, and 50 μL volumes were transferred to the microtiter tray wells. Five days after infection, the viability of mock- and HIV-infected cells was examined spectrophotometrically using the MTT assay. The MTT assay is based on the reduction of yellow-colored 3-(4,5-dimethylthiazol-2-yl)-2,5-diphenyltetrazolium bromide (MTT) (Acros Organics) by mitochondrial dehydrogenase activity in metabolically active cells to a blue-purple formazan that can be measured spectrophotometrically. The absorbances were read in an eight-channel computer-controlled photometer (Infinite M1000, Tecan) at two wavelengths (540 and 690 nm). All data were calculated using the median absorbance value of three wells.

Data set [2] addresses HIV-1 NL4-3 CA hexamer (Human immunodeficiency virus type 1 group M subtype B, UniProt P12493, A146C/E177C/M317A/W316A). The experiment in a line: SPR binding to disulfide-stabilized NL4-3 CA hexamer.
Data set [3] has as its system HIV-1. The experiment in a line: Anti-HIV-1 activity in MT-4 cells (MTT method). The class given is cell-based. To be noted: Human immunodeficiency virus 1, MT4; MT-4 cells, 50% protection against HIV-induced cytopathicity, MTT method. The procedure: as §1
For data set [4], the target named is T1, HIV-1 NL4-3 CA monomer (Human immunodeficiency virus type 1 group M subtype B, UniProt P12493).
T1 construct: the HIV-1 NL4-3 capsid protein constructs; His6 (C); made in house; host or cells: E. coli BL21-Codon Plus (DE3)-RIL
The experiment in a line: biochemical. The note with it: SPR. Format: binding.

Data set [5] relates to HIV-2. As to the kind of experiment: Anti-HIV-2 activity in MT-4 cells (MTT method). Format: cell-based. The procedure: as §1
For data set [6] the following is noted: metabolic stability; cited from earlier work.
The test system of data set [7] is HIV. To be noted: moderate activity; cited from earlier work.
The mark [8] stands for this setting: Human immunodeficiency virus 2, MT4, 50% protection against HIV-induced cytopathicity.

Where only a bound is given, the exact number is not on record here.

In the case of `COc1ccc(N(C)C(=O)[C@H](Cc2cc(F)cc(F)c2)NC(=O)CN(Cc2ccc(F)cc2)C(=O)Cn2nc(C(F)(F)F)c3c2CCCC3)cc1` [I-19, (S)-3-(3,5-difluorophenyl)-2-(2-(N-(4-fluorobenzyl)-2-(3-(trifluoromethyl)-4,5,6,7-tetrahydro-1H-indazol-1-yl)acetamido)acetamido)-N-(4-methoxyphenyl)-N-methylpropanamide], the melting point – broadly, the temperature of the solid-liquid transition – was in the range of 46 to 48 °C. Besides, the CC50 at 5 days in data set [1] was found to be 108 ± 27.4 µM. Further, in data set [2] (1:1 binding model), the “Koff Hexamer” value was determined as 0.00758 ± 0.000504 S^−1 and the “Kon Hexamer” value came out at 628 ± 152 M^−1S^−1. Binding in data set [2] (25 °C, at least 3 replicates) was put at a Kd of 36.9 µM. Besides, it took 2.53 ± 0.84 µM to reach a half-maximal effect in data set [3] (EC50). Further, the “Ratio KD (monomer)/KD(hexamer)” value in data set [4] was determined as 0.36. Further, in data set [4] (1:1 binding model), the “Koff Monomer” value stood at 0.0301 ± 0.0172 S^−1 and the “Kon Monomer” value was 4160 ± 1670 M^−1S^−1. Also, in data set [4] (25 °C, at least 3 replicates), the Kd (in general, the concentration at which binding is half-saturated) was 13.3 µM. The half-maximal effective concentration (EC50) – broadly, the concentration that produces a half-maximal response – in data set [5] (setting [8]) is 12.9 ± 3.72 µM.

Consider `Cc1[nH]c2ccccc2c1CC(=O)NC(Cc1ccccc1)C(=O)N(C)c1ccccc1` (centres unmarked) [PF-74, reference compound], for which, in data set [1], the CC50 at 5 days is 73.8 ± 7.54 µM. Moreover, the EC50 in data set [3] is 0.26 ± 0.08 µM; in data set [7] it was 0.52 to 0.9 µM; in data set [5] (50% protection against HIV-induced cytopathicity), 2.22 ± 0.31 µM; in data set [5] (setting [8]), over 2.22 µM. The T1/2 in data set [6] is 30 to 78 s.

The values above are taken from paper PMC9502897, “Design, Synthesis and Structure—Activity Relationships of Phenylalanine-Containing Peptidomimetics as Novel HIV-1 Capsid Binders Based on Ugi Four-Component Reaction” (Molecules, 2022).
